Measurements published in paper PMC8304634, “Structure–Activity Relationships of the Antimalarial Agent Artemisinin 10. Synthesis and Antimalarial Activity of Enantiomers of rac-5β-Hydroxy-D-Secoartemisinin and Analogs: Implications Regarding the Mechanism of Action” (Molecules, 2021).
Converted amounts (≈) assume the structure as drawn. “Also recorded” adds a separate entry of the source.

Tests used:
[1] = test system: P. falciparum Indochina (W-2) clone; assay: In vitro antimalarial pLDH assay, W-2 clone; type: cell-based; details: for IC50: Plasmodium falciparum, Erythrocyte, read-out: IC50 (ng/mL) W-2; for IC50 / IC50 (ng/mL) W-2: 72 h, parasitized red blood cells, pLDH readout, NA = Not active
Method: (§1) Artemisinin 1 and the analogs rac-2, 2a, 2b, 9–16, diastereomers 19a, 19b, 22 and 29 were tested in vitro in parasitized whole blood against drug-resistant strains of P. falciparum parasite clones D-6 and W-2 at The National Center for Natural Products Research (NCNPR) at The University of Mississippi using the parasite lactate dehydrogenase (pLDH) assay developed by Makler (Table 3). This assay is based on the ability of the pLDH enzyme of P. falciparum to reduce APAD to APADH. This reaction is carried out at a slow rate by human red blood cell LDH.
(§2) The formation of APADH was monitored colorimetrically by the addition of nitroblue tetrazolium which was reduced to a blue formazan product. Two P. falciparum malaria parasite clones, designated as Indochina (W-2) and Sierra Leone (D-6), were used in susceptibility testing. The W-2 clone is chloroquine-resistant and mefloquine-sensitive, while the D-6 clone is chloroquine-sensitive but mefloquine resistant. The relative potency values for these analogs were derived from the IC50 value for artemisinin (1) divided by their IC50 values (Table 3) and then adjusted for molecular weight differences by multiplication of the ratio of the molecular weight of the analog divided by the molecular weight of artemisinin. This approach to reporting activity was based in part on the fact that the analogs were tested on different occasions in which the IC50 for the control, artemisinin, had varied anywhere from 5 to 7 ng/mL based on parasitemia levels and clone.
(§3) Synthesized compounds were tested in vitro against two P. falciparum malaria parasite clones, designated as Indochina (W-2) and Sierra Leone (D-6). The W-2 clone is chloroquine resistant whereas the D-6 clone is a chloroquine-sensitive strain.
(§4) A suspension of red blood cells infected with W-2 or D-6 strain of P. falciparum that contains 2% parasitemia and 2% hematocrit in RPMI 1640 medium supplemented with 10% human serum and 60 µg/mL amikacin was dispensed into the wells of a 96-well flat-bottomed microtiter plate containing 10 µL of serially diluted test samples. The plates were incubated at 37 °C in an environment of 90% N2, 5% O2, and 5% CO2 for 72 h. Next, 100 µL aliquots of the Malstat reagent were added to each well of a new 96-well microtiter plate. The cultures were resuspended from the assay plate by mixing each well up and down several times. A total of 20 µL from each well of the resuspended culture was removed and added to the plate containing the Malstat reagent and the plate was incubated at r.t., for 30 min. Further, to each well, 20 µL of a NBT/PES (1:1) solution (2 and 0.1 mg/mL, respectively) were added. The plate was incubated in the dark for 1 h. The reaction was terminated by the addition of 100 µL of a 5% acetic acid solution. The […] plate was then read at 650 nm. Artemisinin and chloroquine were included in each assay as antimalarial drug controls. The IC50 values were computed from the dose–response curves using XLfit 4.2.

P. falciparum = assay: In vitro antimalarial pLDH assay, clone not distinguished in the statement; type: cell-based; details: for in vitro antimalarial activity (in words): W-2 and D-6 strains
Method: as §1, §2, §3, §4

[2] = test system: P. falciparum Sierra Leone (D-6) clone; assay: In vitro antimalarial pLDH assay, D-6 clone; type: cell-based; details: for IC50: Plasmodium falciparum, Erythrocyte, read-out: IC50 (ng/mL) D-6; for IC50 / IC50 (ng/mL) D-6: 72 h, parasitized red blood cells, pLDH readout, NA = Not active
Method: as §1, §2, §3, §4

[3] = 100 × [IC50 (artemisinin, control value)/IC50 (analog)] MW (analog)/MW(artemisinin)
[4] = as quoted in the Discussion, relative to artemisinin

| IC50 [1] | melting point | IC50 [2] | IC50 (P. falciparum; Plasmodium falciparum, varied between test occasions, based on parasitemia levels and clone, read-out: IC50 for the control, artemisinin) | IC50 (ng/mL) W-2 [1] | IC50 (ng/mL) D-6 [2] | SMILES | Relative Activity W-2 [1, 3] | Relative Activity W-2 [1, 4] | in vitro antimalarial activity (in words) (P. falciparum) | Relative Activity D-6 [2, 3] | Relative Activity D-6 [2, 4] | times more potent than the alcohol rac-2 or 2a (P. falciparum; fold potency versus rac-2 or 2a) |
| --- | --- | --- | --- | --- | --- | --- | --- | --- | --- | --- | --- | --- |
| 885 ng/mL (≈ 4.13 µM) | 108 to 110 °C | 1260 ng/mL (≈ 5.86 µM) | – | – | – | C[C@@]12C[C@@H](O)[C@H]3CCCC[C@]3(CO1)OO2 [Compound 2a, (3R,5R,5aR,9aS)-3-methyloctahydro-1H-3,9a-epidioxybenzo[c]oxepin-5-ol] | 0.44 | 0.44% | Antimalarial activity resided with only the artemisinin-like enantiomer; also recorded: the only alcohol of the pair with antimalarial activity | 0.43 | 0.43% | – |
| 23.3 ng/mL (≈ 0.11 µM) | – | 31.8 ng/mL (≈ 0.15 µM) | – | – | – | CC12CC(=O)C3CCCCC3(CO1)OO2 (stereo not shown) [Compound 15, 3-Methylhexahydro-1H-3,9a-epidioxybenzo[c]oxepin-5(5aH)-one] | 32.72 | 32.72% | substantially improved over the corresponding alcohol 2 | 33.30 | 33.30% | 55–77 |
| 346 ng/mL (≈ 1.65 µM) | – | 345 ng/mL (≈ 1.64 µM) | – | – | – | C=C1CC2(C)OCC3(CCCCC13)OO2 (stereo not shown) [Compound 16] | 2.18 | – | – | 3.05 | – | – |
| 148 ng/mL (≈ 0.43 µM) | – | 131 ng/mL (≈ 0.38 µM) | – | – | – | CC12CC(OC(=O)C=Cc3ccccc3)C3CCCCC3(CO1)OO2 (stereo not shown) [Compound 13, 3-Methyloctahydro-1H-3,9a-epidioxybenzo[c]oxepin-5-yl cinnamate] | 8.37 | – | – | 13.14 | – | – |
| – | 123 to 125 °C | – | – | – | – | CC(=O)OCC12CCCCC1C(O)CO2 (stereo not shown) [Compound 22, (3-Hydroxyhexahydrobenzofuran-7a(2H)-yl)methyl acetate] | – | – | Neither 22 nor 29 possessed in vitro antimalarial activity; also recorded: no antimalarial activity | – | – | – |
| – | 107 to 109 °C | – | – | – | – | C[C@]12C[C@H](O)[C@@H]3CCCC[C@@]3(CO1)OO2 [Compound 2b, (3S,5S,5aS,9aR)-3-methyloctahydro-1H-3,9a-epidioxybenzo[c]oxepin-5-ol] | – | – | devoid of antimalarial activity | – | – | – |
| 97.5 ng/mL (≈ 0.29 µM) | 88 to 90 °C | 80.7 ng/mL (≈ 0.24 µM) | – | – | – | CC12CC(OC(=O)c3ccc(F)cc3)C3CCCCC3(CO1)OO2 (stereo not shown) [Compound 11, 3-Methyloctahydro-1H-3,9a-epidioxybenzo[c]oxepin-5-yl 4-fluorobenzoate] | 12.41 | 12.41% | – | 20.81 | 20.81% | – |
| 5.08 ng/mL (≈ 0.018 µM) | – | 7.05 ng/mL (≈ 0.025 µM) | 5 to 7 ng/mL (≈ 0.0177 to 0.0248 µM) | – | – | C[C@@H]1CC[C@H]2[C@@H](C)C(=O)O[C@@H]3O[C@@]4(C)CC[C@@H]1[C@]32OO4 [Compound 1, Artemisinin] | 100 | – | – | 100 | – | – |
| 1780 ng/mL (≈ 8.3 µM) | 109 to 111 °C | 1720 ng/mL (≈ 8.01 µM) | – | – | – | CC12CC(O)C3CCCCC3(CO1)OO2 (racemic) [rac-2, 3-Methyloctahydro-1h-3,9a-epidioxybenzo[c]oxepin-5-ol] | 0.43 | 0.43% | – | – | 0.62% | – |
| – | – | – | – | 2255.40 ng/mL (≈ 5.24 µM) | 2169.31 ng/mL (≈ 5.04 µM) | COC(C(=O)OC1CC2(C)OCC3(CCCCC13)OO2)(c1ccccc1)C(F)(F)F [Compound 19b, (3S,5S,5aS,9aR)-3-methyloctahydro-1H-3,9a-epidioxybenzo[c]oxepin-5-yl(R)-3,3,3-trifluoro-2-methoxy-2-phenylpropanoate] | 0.34 | 0.34% | – | 0.50 | 0.50% | – |
| 209 ng/mL (≈ 0.7 µM) | – | 149 ng/mL (≈ 0.5 µM) | – | – | – | CCCCC(=O)OC1CC2(C)OCC3(CCCCC13)OO2 (stereo not shown) [Compound 9, 3-Methyloctahydro-1H-3,9a-epidioxybenzo[c]oxepin-5-yl pentanoate] | 2.60 | – | – | 5.00 | – | – |
| – | – | – | – | 357.24 ng/mL (≈ 0.83 µM) | 150.64 ng/mL (≈ 0.35 µM) | COC(C(=O)OC1CC2(C)OCC3(CCCCC13)OO2)(c1ccccc1)C(F)(F)F [Compound 19a, (3R,5R,5aR,9aS)-3-methyloctahydro-1H-3,9a-epidioxybenzo[c]oxepin-5-yl(R)-3,3,3-trifluoro-2-methoxy-2-phenylpropanoate] | 2.17 | – | – | 7.13 | – | – |
| 121 ng/mL (≈ 0.38 µM) | 100 to 102 °C | 153 ng/mL (≈ 0.48 µM) | – | – | – | CC12CC(OC(=O)c3ccccc3)C3CCCCC3(CO1)OO2 (stereo not shown) [Compound 10, 3-Methyloctahydro-1H-3,9a-epidioxybenzo[c]oxepin-5-yl benzoate] | 9.50 | – | – | 10.40 | – | – |
| 167 ng/mL (≈ 0.48 µM) | 155 to 157 °C | 115 ng/mL (≈ 0.33 µM) | – | – | – | COc1ccc(C(=O)OC2CC3(C)OCC4(CCCCC24)OO3)cc1 (stereo not shown) [Compound 12, 3-Methyloctahydro-1H-3,9a-epidioxybenzo[c]oxepin-5-yl 4-methoxybenzoate] | 7.50 | – | – | 15.13 | – | – |
| 120 ng/mL (≈ 0.34 µM) | 110 to 112 °C | 145 ng/mL (≈ 0.41 µM) | – | – | – | CC12CC(OC(=O)c3ccc(Cl)cc3)C3CCCCC3(CO1)OO2 (stereo not shown) [Compound 14, 3-Methyloctahydro-1H-3,9a-epidioxybenzo[c]oxepin-5-yl 4-chlorobenzoate] | 10.58 | – | – | 12.18 | – | – |
| – | – | – | – | – | – | CC(=O)OCC1(O)CCCCC1C(C)=O (stereo not shown) [Compound 29, (2-Acetyl-1-hydroxycyclohexyl)methyl acetate] | – | – | Neither 22 nor 29 possessed in vitro antimalarial activity; also recorded: no antimalarial activity | – | – | – |
